Measurements taken from the supplement of paper PMC11208160.

Experiment: recombinant UMI read abundance after kanamycin selection (control-corrected) (log10(CPM+1)); higher = more efficient recombination; extreme values may be limits of the assay; sequences stand for … in AGTGCAGAGAAAATCGGCCAGTTTTCTCTGCCTGCAGTCCGCATGCCGTGGGACCCCTTGGGTTCTAACCTGTTGCCTAGATTTATGCAGCGGACTGCCTTTCTCCCAAAGTGATAAACCGG…AGGTTGGTTTCACT; site = the 11-nt donor
In short: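 Values are reported as log10(CPM+1), obtained by converting sequencing counts to CPM, averaging replicates and scaling by control-derived factors. The counts came from recombinant UMIs amplified by PCR across the donor–target junction. These UMIs came from a pooled Escherichia coli screen of donor and donor-binding-loop pairs for the IS621 bridge recombinase, plated with IPTG (0.07 mM) plus kanamycin or left unselected, in two replicates each.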
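Note: IS621 bridge recombinase in Escherichia coli cells against a fixed T5 target plasmid.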

Row | Sequence | recombinant UMI read abundance (log10)
1 | GCTACTGCATGGACCGGTTTTCCCGGTAATCCGTATTTGGC (site GCTACTGCTGA) | 0.76
2 | GCTACTGCATGGACCGGTTTTCCCGGTAATCCGTATTTGGC (site GCTACTGCTGC) | 1.92
3 | GCTACTGCATGGACCGGTTTTCCCGGTAATCCGTATTTGGC (site GCTACTGCTGG) | 0
4 | GCTACTGCATGGACCGGTTTTCCCGGTAATCCGTATTTGGC (site GCTACTGCTGT) | 1.54
5 | GCTAGAACATGGACCGGTTTTCCCGGTAATCCGTATTTGGC (site GATAGAACTGC) | 0
6 | GCTAGAACATGGACCGGTTTTCCCGGTAATCCGTATTTGGC (site GCTAGAACTGC) | 2.02
7 | GCTAGAACATGGACCGGTTTTCCCGGTAATCCGTATTTGGC (site GGTAGAACTGC) | 0
8 | GCTAGAACATGGACCGGTTTTCCCGGTAATCCGTATTTGGC (site GTTAGAACTGC) | 0
9 | GCTAGCACATGGACCGGTTTTCCCGGTAATCCGTATTTGCT (site GCTAGCACTAG) | 1.64
10 | GCTAGTGCATGGACCGGTTTTCCCGGTAATCCGTATTTGCC (site GCTAATGCTGG) | 0
11 | GCTAGTGCATGGACCGGTTTTCCCGGTAATCCGTATTTGCC (site GCTACTGCTGG) | 0
12 | GCTAGTGCATGGACCGGTTTTCCCGGTAATCCGTATTTGCC (site GCTAGTGCTGG) | 1.86
13 | GCTAGTGCATGGACCGGTTTTCCCGGTAATCCGTATTTGCC (site GCTATTGCTGG) | 0
14 | GCTATCACATGGACCGGTTTTCCCGGTAATCCGTATTTGGG (site GCTATCACTCC) | 0.147
15 | GCTATTGCATGGACCGGTTTTCCCGGTAATCCGTATTTGCC (site GCTAATGCTGG) | 0
16 | GCTATTGCATGGACCGGTTTTCCCGGTAATCCGTATTTGCC (site GCTACTGCTGG) | 0

Row | Sequence | recombinant UMI read abundance (log10)
17 | GCTATTGCATGGACCGGTTTTCCCGGTAATCCGTATTTGCC (site GCTAGTGCTGG) | 0.00747
18 | GCTATTGCATGGACCGGTTTTCCCGGTAATCCGTATTTGCC (site GCTATTGCTGG) | 0.891
19 | GCTCACCCATGGACCGGTTTTCCCGGTAATCCGTATTTGCT (site GCTCACCCTAG) | 0
20 | GCTCATTCATGGACCGGTTTTCCCGGTAATCCGTATTTGAG (site GCTCATTCTCT) | 1.39
21 | GCTCGCGCATGGACCGGTTTTCCCGGTAATCCGTATTTGTG (site GCTCGCGCTCA) | 0.397
22 | GCTCGTCCATGGACCGGTTTTCCCGGTAATCCGTATTTGGG (site GCTCGTCCTCC) | 0.0164
23 | GCTCTATCATGGACCGGTTTTCCCGGTAATCCGTATTTGCT (site GCTCTATCTAG) | 2.04
24 | GCTGCGCCATGGACCGGTTTTCCCGGTAATCCGTATTTGGA (site GCTGCGCCTTC) | 0.0238
25 | GCTGGGACATGGACCGGTTTTCCCGGTAATCCGTATTTGTG (site GCTGGGACTCA) | 0.944
26 | GCTGGTACATGGACCGGTTTTCCCGGTAATCCGTATTTGCG (site GCTGGTACTCG) | 1.68
27 | GCTGTGTCATGGACCGGTTTTCCCGGTAATCCGTATTTGCG (site GCTGTGTCTCG) | 2.07
28 | GCTTAAGCATGGACCGGTTTTCCCGGTAATCCGTATTTGCC (site GCTTAAGCTGG) | 0.666
29 | GCTTACACATGGACCGGTTTTCCCGGTAATCCGTATTTGCG (site GCTTACACTCG) | 1.72
30 | GCTTACCCATGGACCGGTTTTCCCGGTAATCCGTATTTGAT (site GCTTACCCTAT) | 0.0241
31 | GCTTACCCATGGACCGGTTTTCCCGGTAATCCGTATTTGAT (site GCTTCCCCTAT) | 0
32 | GCTTACCCATGGACCGGTTTTCCCGGTAATCCGTATTTGAT (site GCTTGCCCTAT) | 0.0186
